Laboratory results taken from patent publication US20070196850A1, “Identification of aging genes through large-scale analysis” (priority 2006, published 2007).
Read-outs that look alike come from different tables or passages of the source.

Tested on: yeast cells (BY4742)
Format: cell-based, Saccharomyces cerevisiae
Procedure: FIG. 2 illustrates replicative life span (“RLS”) analysis in yeast. […] A mother cell is a yeast cell that has produced one or more daughter cells. […] The total number of mitotic divisions completed by a given mother cell is the replicative life span for that mother cell. One indicator of senescence in yeast is the inability to produce daughter cells.
A large-scaled, life-span analysis is performed as follows. Approximately three days before initiating a life-span-determination assay, a set of 95 strains contained in a yeast alpha-haploid-deletion collection (Open Biosystems), is transferred to a 96-well plate containing YPDagar using a FX robot, so that each strain occupies one well of a 96-well plate. Concurrently, “wildtype” reference cells (BY4742) are plated within an empty well of the 96-well test plate. For 1-2 days, plated cells are allowed to grow on rich medium, such as YPD, at 30° C. Cells are patched onto life-span-measuring plates containing YPD so that approximately 12 strains are plated per plate the night, or approximately 12 hours, before initiating life-span analysis. A life-span experiment is initiated by gridding a region of the plate distal to growing cells, to which 5 cells of each strain of 12 strains are transferred by micromanipulation. Cells are incubated for two hours at 30° C. Then, virgin daughter cells of each deletion variant cell are selected, and original mother cells are removed. Such virgin daughter cells are monitored for de novo production of daughters at 2-3 hour intervals. Produced daughters are individually removed, and tabulated. Mother cells are placed back at 30° C. to allow continued growth. During evening hours, cells are moved to 4° C. so that the cell division rate is reduced to one cell division per evening. The following day, cells are placed at 30° C. to resume growth. This process is continued for a period of time, approximately two weeks, to allow cells of each variant strain to exhaust its proliferative potential. The total number of daughter cells produced by each mother variant cell is tabulated, and determined RLS values are entered into a database.
To perform the life span experiment, 15 μg/mL diazaborine A was added to standard yeast life span plates (YPD). Cells are patched to these plates the night prior to initiation of the life span. The next morning, individual cells were moved to a location on the plate distant from the patch and allow them to divide. The first daughters produced by each mother cell are used to initiate the life span experiment. Subsequently, each daughter cell that these cells produce is removed with a micromanipulator and tabulations are kept.

| SMILES | life span of yeast cells on drug treatment (yeast cells treated with drug vs no drug control) | replicative life span in yeast (exposure of yeast cells to MSX) | life span (yeast, 50 uM) | life span (yeast, 100 uM) | life span (yeast, 1 mM) | increase in mean replicative life span (maximal life span extension) (yeast, 1 mM, preliminary experiments) | life span (yeast, 2.5 mM) |
| --- | --- | --- | --- | --- | --- | --- | --- |
| C[C@@H]1C[C@@H]([C@H](O)CC2CC(=O)NC(=O)C2)C(=O)[C@@H](C)C1 [cycloheximide] | does not increase life span |  |  |  |  |  |  |
| CS(=N)(=O)CC[C@H](N)C(=O)O (stereo partly shown) [MSX, methionine sulfoximine] |  | extends replicative life span | significantly increases life span | significantly increases life span | significantly increases life span | 25-30% | significantly increases life span |
